Common to all, as to type: biochemical
One assay has as its target T1, aurora 2 kinase (Homo sapiens, UniProt O14965).
T1 construct: The amplified gene encoding aurora 2 kinase was introduced into Escherichia coli expression vector pET32a; made in house; host or cells: Escherichia coli BL21R (Novagen), vector pET32a
T1 sequence (O14965 1-403): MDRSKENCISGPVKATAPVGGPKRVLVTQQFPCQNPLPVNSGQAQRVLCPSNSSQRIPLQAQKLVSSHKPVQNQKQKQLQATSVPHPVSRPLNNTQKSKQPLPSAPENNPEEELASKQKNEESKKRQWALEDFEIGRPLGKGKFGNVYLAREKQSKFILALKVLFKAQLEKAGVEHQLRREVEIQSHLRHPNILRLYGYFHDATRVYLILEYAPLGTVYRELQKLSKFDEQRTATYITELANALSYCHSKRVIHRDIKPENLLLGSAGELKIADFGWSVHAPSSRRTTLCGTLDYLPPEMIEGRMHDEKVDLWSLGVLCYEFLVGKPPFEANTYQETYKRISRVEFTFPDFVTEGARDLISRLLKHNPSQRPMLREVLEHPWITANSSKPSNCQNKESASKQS
In words: Aurora 2 kinase assay (32P-ATP, peptide substrate LRRASLG). To be noted: room temperature 60 min.

Assay [1] addresses T2, Porcine brain tubulin protein (Sus scrofa, UniProt P02550+P02554).
T2 construct: 3.3 mg/ml Porcine brain tubulin protein: Cytoskeleton; purchased Cytoskeleton; host or cells: porcine brain (tissue-derived)
The experiment in a line: Tubulin polymerization assay (turbidity at 405 nm). The conditions noted are these: 10 μM compound, maximum polymerization rate, 37° C.; read-out: inhibitory rate (%). The protocol: A tubulin polymerization reaction mixture (50 μL) (80 mM Pipes pH=6.9, 0.5 mM MgCl2, 1 mM EGTA, 1 mM GTP, 3.3 mg/ml Porcine brain tubulin protein: Cytoskeleton, 10 μM compound) was prepared in a 96 well flat bottom plate under ice-cooling. This was placed in a plate reader (IWAKI microplate reader, EZS-ABS) controlled to a temperature of 37° C., whereby a temperature dependent tubulin polymerization reaction was initiated. Since the turbidity of the reaction mixture increases as the tubulin polymerization proceeds, the absorbance at 405 nm was measured every other minute for 30 min to monitor the polymerization reaction. Of the 30 min measures, the three largest differences per min of turbidity (generally those immediately after start of the reaction) were taken, and the average of the three values was calculated and taken as the maximum polymerization rate. Inhibitory percent (%)=(C−T)/C×100 wherein T is the maximum polymerization rate of the reaction mixture containing the compound, and C is the maximum polymerization rate of the reaction mixture without the compound.

A further assay concerns the target T3, aurora 1 kinase (Homo sapiens, UniProt Q96GD4).
T3 construct: purchased UPSTATE
The experiment in a line: Aurora 1 kinase assay (32P-ATP, peptide substrate LRRWSLG). The conditions noted are these: room temperature 60 min.

Where a name gives a salt, the structure may show the parent alone.

T3 sequence (Q96GD4 whole entry): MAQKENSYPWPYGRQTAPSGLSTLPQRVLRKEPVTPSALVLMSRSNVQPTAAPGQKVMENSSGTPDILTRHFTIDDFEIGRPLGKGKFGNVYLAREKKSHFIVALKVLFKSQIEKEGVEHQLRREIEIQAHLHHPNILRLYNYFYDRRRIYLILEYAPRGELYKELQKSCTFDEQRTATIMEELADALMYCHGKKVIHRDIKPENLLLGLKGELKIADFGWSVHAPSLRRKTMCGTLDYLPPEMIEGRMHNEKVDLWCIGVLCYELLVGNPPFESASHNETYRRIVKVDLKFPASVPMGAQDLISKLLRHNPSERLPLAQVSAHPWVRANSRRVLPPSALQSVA
T2 sequence (P02550 whole entry): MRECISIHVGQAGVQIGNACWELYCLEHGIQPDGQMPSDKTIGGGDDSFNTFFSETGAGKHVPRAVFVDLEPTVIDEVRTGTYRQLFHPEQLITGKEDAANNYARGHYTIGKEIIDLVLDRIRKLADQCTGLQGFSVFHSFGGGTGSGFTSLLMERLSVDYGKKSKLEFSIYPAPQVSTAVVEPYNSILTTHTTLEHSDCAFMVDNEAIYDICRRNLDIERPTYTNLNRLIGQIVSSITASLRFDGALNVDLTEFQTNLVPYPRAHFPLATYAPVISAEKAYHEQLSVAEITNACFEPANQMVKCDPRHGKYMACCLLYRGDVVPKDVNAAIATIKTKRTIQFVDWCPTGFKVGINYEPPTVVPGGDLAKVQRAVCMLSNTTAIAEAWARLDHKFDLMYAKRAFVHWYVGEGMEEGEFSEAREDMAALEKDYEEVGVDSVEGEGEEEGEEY
T2 sequence (P02554 whole entry): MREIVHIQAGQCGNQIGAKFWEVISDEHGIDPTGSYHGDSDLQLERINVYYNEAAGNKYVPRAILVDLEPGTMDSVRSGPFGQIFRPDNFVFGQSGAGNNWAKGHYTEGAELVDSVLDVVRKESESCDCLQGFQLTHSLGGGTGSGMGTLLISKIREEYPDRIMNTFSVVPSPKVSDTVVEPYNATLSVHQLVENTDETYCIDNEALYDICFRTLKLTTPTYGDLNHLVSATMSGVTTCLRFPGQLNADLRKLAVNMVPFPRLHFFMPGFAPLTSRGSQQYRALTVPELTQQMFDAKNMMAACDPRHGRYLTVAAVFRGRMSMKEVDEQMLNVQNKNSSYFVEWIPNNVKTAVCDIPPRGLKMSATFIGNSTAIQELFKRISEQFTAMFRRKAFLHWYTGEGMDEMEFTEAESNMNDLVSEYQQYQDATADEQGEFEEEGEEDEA

Take `COc1ccc(OCCNc2nc(Nc3cc(C)[nH]n3)cc(C)c2C#N)cc1` [Example 5, 2-(2-(4-methoxyphenoxy)ethylamino)-6-(5-methyl-1H-pyrazol-3-ylamino)-4-methylnicotinonitrile hydrochloride]: the Ki (usually the equilibrium dissociation constant of an inhibitor or competing ligand from its target) on aurora 2 kinase came out at 26 nM. The inhibition at 10 µM in assay [1] came out at 51%.
`Cc1cc(Nc2cc(-c3cccnc3)c(C#N)c(NCCOc3ccccc3)n2)n[nH]1` [Example 6, 2-(2-phenoxyethylamino)-6-(5-methyl-1H-pyrazol-3-ylamino)-4-(pyridin-3-yl)nicotinonitrile]: the Ki at aurora 2 kinase turned out to be 3 nM. Also, in assay [1], the inhibition at 10 µM is less than 0%.
`Cc1cc(Nc2cc(C)c(C#N)c(NCCOc3ccncc3)n2)n[nH]1` [Example 11, 2-(2-(pyridin-4-yloxy)ethylamino)-6-(5-methyl-1H-pyrazol-3-ylamino)-4-methylnicotinonitrile] registered an inhibition constant Ki at aurora 2 kinase of 24 nM. Moreover, in assay [1], the inhibition at 10 µM was 42%.
On aurora 2 kinase, `Cc1cc(Nc2cc(C)c(C#N)c(NCCOc3ccc(F)cc3)n2)n[nH]1` [Example 10, 2-(2-(4-fluorophenoxy)ethylamino)-6-(5-methyl-1H-pyrazol-3-ylamino)-4-methylnicotinonitrile] displayed a Ki of 3 nM. Further, the inhibition at 10 µM in assay [1] turned out to be 44%.
Consider `Cc1cc(Nc2cc(C3CC3)n[nH]2)nc(NCCOc2cccnc2)c1C#N` [Example 34, 6-(5-cyclopropyl-1H-pyrazol-3-ylamino)-4-methyl-2-(2-(pyridin-3-yloxy)ethylamino)nicotinonitrile], for which the Ki on aurora 1 kinase is not above 100 nM.
As for `Cc1cc(Nc2ccc(C#N)c(NCCOc3cccnc3)n2)n[nH]1` [Example 17, 2-(2-(pyridin-3-yloxy)ethylamino)-6-(5-methyl-1H-pyrazol-3-ylamino)nicotinonitrile], the Ki on aurora 2 kinase is 2 nM. In addition, the inhibition at 10 µM in assay [1] is 67%.
With `Cc1cc(Nc2ccc(C#N)c(NCCOc3ccccc3Cl)n2)n[nH]1` [Example 25, 2-(2-(2-chlorophenoxy)ethylamino)-6-(5-methyl-1H-pyrazol-3-ylamino)nicotinonitrile hydrochloride], the figures for the Ki on aurora 2 kinase and on aurora 1 kinase were 2 nM and not above 100 nM, respectively. Moreover, the inhibition at 10 µM in assay [1] was 51%.
In turn, `COc1ccccc1OCCNc1nc(Nc2cc(C)[nH]n2)cc(C)c1C#N` [Example 8, 2-(2-(2-methoxyphenoxy)ethylamino)-6-(5-methyl-1H-pyrazol-3-ylamino)-4-methylnicotinonitrile] returned a Ki at aurora 2 kinase of 6 nM. Moreover, the inhibition at 10 µM in assay [1] is 42%.
Take `Cc1cc(Nc2cc(C)c(C#N)c(NCCOc3ccccc3F)n2)n[nH]1` [Example 13, 2-(2-(2-fluorophenoxy)ethylamino)-6-(5-methyl-1H-pyrazol-3-ylamino)-4-methylnicotinonitrile hydrochloride]: the figures for the Ki at aurora 2 kinase and on aurora 1 kinase were 2 nM and not above 100 nM, respectively. In addition, the inhibition at 10 µM in assay [1] was found to be 69%.
Consider `Cc1ccc(OCCNc2nc(Nc3cc(C)[nH]n3)ccc2C#N)cn1` [Example 27, 2-(2-(6-methylpyridin-3-yloxy)ethylamino)-6-(5-methyl-1H-pyrazol-3-ylamino)nicotinonitrile dihydrochloride], for which the Ki at aurora 2 kinase is 3 nM; at aurora 1 kinase, not above 100 nM. Also, the inhibition at 10 µM in assay [1] was found to be 57%.
The compound `Cc1cc(Nc2cc(C)c(C#N)c(NCCOc3ccccc3Cl)n2)n[nH]1` [Example 24, 2-(2-(2-chlorophenoxy)ethylamino)-6-(5-methyl-1H-pyrazol-3-ylamino)-4-methylnicotinonitrile hydrochloride] displayed a Ki on aurora 2 kinase of 1 nM. In assay [1], the inhibition at 10 µM is 73%.
Compound `Cc1cc(Nc2cc(C)c(C#N)c(NCCOc3ccc(F)c(Cl)c3)n2)n[nH]1` [Example 16, 2-(2-(3-chloro-4-fluorophenoxy)ethylamino)-6-(5-methyl-1H-pyrazol-3-ylamino)-4-methylnicotinonitrile] came in with a Ki on aurora 2 kinase of 3 nM. Besides, the inhibition at 10 µM in assay [1] turned out to be 65%.
Take `Cc1cc(Nc2cc(C)c(C#N)c(NCCOc3cc(F)cc(F)c3)n2)n[nH]1` [Example 20, 2-(2-(3,5-difluorophenoxy)ethylamino)-6-(5-methyl-1H-pyrazol-3-ylamino)-4-methylnicotinonitrile hydrochloride]: at aurora 2 kinase, the Ki was found to be 2 nM. Further, the inhibition at 10 µM in assay [1] turned out to be 75%.
For `Cc1cc(Nc2cc(C)c(C#N)c(NCCOc3ccccn3)n2)n[nH]1` [Example 7, 2-(2-(pyridin-2-yloxy)ethylamino)-6-(5-methyl-1H-pyrazol-3-ylamino)-4-methylnicotinonitrile dihydrochloride] the same measures were 6 nM and 63%.
`Cc1cc(Nc2cc(C(C)C)n[nH]2)nc(NCCOc2cccnc2)c1C#N` [Example 35, 6-(5-isopropyl-1H-pyrazol-3-ylamino)-4-methyl-2-(2-(pyridin-3-yloxy)ethylamino)nicotinonitrile] came in with a Ki at aurora 1 kinase not above 100 nM.
In turn, `Cc1cc(Nc2ccc(C#N)c(NCCOc3cccc(F)c3)n2)n[nH]1` [Example 15, 2-(2-(3-fluorophenoxy)ethylamino)-6-(5-methyl-1H-pyrazol-3-ylamino)nicotinonitrile] displayed an inhibition constant Ki at aurora 2 kinase of 2 nM. Further, the inhibition at 10 µM in assay [1] came out at 69%.
`Cc1cc(Nc2ccc(C#N)c(NCCOc3ccccc3)n2)n[nH]1` [Example 14, 2-(2-phenoxyethylamino)-6-(5-methyl-1H-pyrazol-3-ylamino)nicotinonitrile]: at aurora 2 kinase, the Ki is 3 nM. Besides, the inhibition at 10 µM in assay [1] came out at 55%.
For `Cc1cc(Nc2ccc(C#N)c(NCCOc3ccccc3F)n2)n[nH]1` [Example 19, 2-(2-(2-fluorophenoxy)ethylamino)-6-(5-methyl-1H-pyrazol-3-ylamino)nicotinonitrile hydrochloride], the Ki at aurora 2 kinase amounted to 1 nM. Besides, the inhibition at 10 µM in assay [1] is 59%.
`COc1ccc(-c2cc(Nc3cc(C)[nH]n3)nc(NCCOc3ccccc3Cl)c2C#N)cc1` [Example 26, 2-(2-(2-chlorophenoxy)ethylamino)-6-(5-methyl-1H-pyrazol-3-ylamino)-4-(4-methoxyphenyl)nicotinonitrile hydrochloride] showed a Ki at aurora 2 kinase of 13 nM. Also, the inhibition at 10 µM in assay [1] was 48%.
On aurora 2 kinase, `Cc1ccc(OCCNc2nc(Nc3cc(C)[nH]n3)ccc2C#N)c(C)n1` [Example 29, 2-(2-(2,6-dimethylpyridin-3-yloxy)ethylamino)-6-(5-methyl-1H-pyrazol-3-ylamino)nicotinonitrile dihydrochloride] returned a Ki of 66 nM. For the same compound, the inhibition at 10 µM in assay [1] was found to be 42%.
For `Cc1cc(Nc2ccc(C#N)c(NCCOc3ccc(OC(F)(F)F)cc3)n2)n[nH]1` [Example 30, 2-(2-(4-(trifluoromethoxy)phenoxy)ethylamino)-6-(5-methyl-1H-pyrazol-3-ylamino)nicotinonitrile], in that order: 80 nM and 34%.
`Cc1cc(Nc2cc(-c3ccccc3)c(C#N)c(NCCOc3ccccc3)n2)n[nH]1` [Example 1, 2-(2-phenoxyethylamino)-6-(5-methyl-1H-pyrazol-3-ylamino)-4-phenylnicotinonitrile] had a Ki on aurora 2 kinase of 19 nM. The inhibition at 10 µM in assay [1] came to 51%.
On to `Cc1cc(Nc2cc(C(F)(F)F)c(C#N)c(NCCOc3ccccc3)n2)n[nH]1` [Example 3, 2-(2-phenoxyethylamino)-6-(5-methyl-1H-pyrazol-3-ylamino)-4-trifluoromethylnicotinonitrile], for which affinity on aurora 2 kinase was put at a Ki of 15 nM. The inhibition at 10 µM in assay [1] was 36%.
Consider `Cc1cc(Nc2cc(-c3cccnc3)c(C#N)c(NCCOc3cccc(F)c3)n2)n[nH]1` [Example 18, 2-(2-(3-fluorophenoxy)ethylamino)-6-(5-methyl-1H-pyrazol-3-ylamino)-4-(pyridin-3-yl)nicotinonitrile dihydrochloride], for which the Ki at aurora 2 kinase turned out to be 2 nM. Moreover, the inhibition at 10 µM in assay [1] was determined as 79%.
In the case of `COc1ccc(-c2cc(Nc3cc(C)[nH]n3)nc(NCCOc3ccccc3)c2C#N)cc1` [Example 4, 2-(2-phenoxyethylamino)-6-(5-methyl-1H-pyrazol-3-ylamino)-4-(4-methoxyphenyl)nicotinonitrile], at aurora 2 kinase, the Ki amounted to 15 nM. The inhibition at 10 µM in assay [1] came to 63%.

Values taken from US7928126B2, “Cyanopyridine derivative and use thereof as medicine” (Mitsubishi Tanabe Pharma Corporation, priority 2005, dated 2011).
